Results reported in patent publication US7745657B2, “D-homoandrosta-17-yl carbamate derivatives as selective glucocorticoid receptor ligands” (Merck Sharp & Dohme Corp., priority 2005, dated 2010).

Molecular target: T1, human GR (Homo sapiens, UniProt P04150)
T1 construct: U937 cells contain an endogenous glucocorticoid receptor (GR); endogenous in cells; host or cells: U937 cells stably transfected with the TNF-alpha promoter / beta-lactamase reporter
T1 sequence (P04150 1-777): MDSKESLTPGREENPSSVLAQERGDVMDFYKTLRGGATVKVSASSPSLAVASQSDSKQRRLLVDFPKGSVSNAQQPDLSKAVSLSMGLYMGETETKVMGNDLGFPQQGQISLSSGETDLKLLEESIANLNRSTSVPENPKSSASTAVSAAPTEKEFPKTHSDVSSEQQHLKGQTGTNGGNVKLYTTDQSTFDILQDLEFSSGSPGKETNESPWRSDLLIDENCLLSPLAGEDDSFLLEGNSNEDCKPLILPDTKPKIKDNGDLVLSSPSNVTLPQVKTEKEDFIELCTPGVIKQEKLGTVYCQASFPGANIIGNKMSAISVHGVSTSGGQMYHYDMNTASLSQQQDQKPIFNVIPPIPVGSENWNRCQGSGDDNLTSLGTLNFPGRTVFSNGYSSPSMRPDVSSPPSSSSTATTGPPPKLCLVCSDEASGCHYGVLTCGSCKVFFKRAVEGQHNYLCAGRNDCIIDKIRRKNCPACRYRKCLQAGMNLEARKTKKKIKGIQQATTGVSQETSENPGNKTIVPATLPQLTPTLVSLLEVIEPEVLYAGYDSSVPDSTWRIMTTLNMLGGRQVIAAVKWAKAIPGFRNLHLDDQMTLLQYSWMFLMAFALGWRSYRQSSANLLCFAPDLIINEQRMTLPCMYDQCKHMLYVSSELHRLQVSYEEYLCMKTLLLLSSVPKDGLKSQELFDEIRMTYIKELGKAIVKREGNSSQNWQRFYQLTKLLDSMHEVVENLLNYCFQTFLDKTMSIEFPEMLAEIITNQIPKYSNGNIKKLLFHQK
Assay: Transrepression assay, TNFα-β-lactamase reporter gene in U937 cells
Format: cell-based
Details: U-937, PMA/LPS stimulated, activity repressed by 100 nM dexamethasone alone set as 100%, read-out: maximal activity
Source text: This assay assesses the ability of test compounds to control transcription from the TNFα-β-lactamase reporter gene in U937 cells, a human myelomonocytic leukemia cell line that naturally expresses the human GR. The assay measures compound dependent-repression of the TNFα promoter linked to a reporter gene.
The human U937 cells that had been stablely transfected with the TNF-αpromoter driving β-lactamase are used for this assay. U937 cells contain an endogenous glucocorticoid receptor (GR). Cells are maintained in RPMI 1640 Growth medium (Gibco Cat#11875-093) containing 25 mM HEPES, 10% FBS, 2 mM L-Glutamine, 1 mM Sodium pyruvate, 25 μg/ml Gentamicin (Gibco Cat#15710-064), 1:1000 2-Mercaptoethanol (Gibco Cat#21985-023) and 0.8 mg/ml G418 (Gibco Cat#10131-027). The density of the cells in the flask needs to be about 1×10^6−3×10^6/ml at the time of harvest. Usually, the cells are split to 1.2˜1.4×10^5/ml (1:10) 3 days prior to the assay. 50,000 cells/well are plated in 96 well black-walled plates the day of assay. Test compounds are added 10 μL/well, and cells are incubated at 37° C. for 30˜45 min. For assaying compounds, first dilute 1:10 in DMSO to make 1 mM, then further dilute 1:100 in medium to make 10× stock prior to adding to the cells. Add 50 ng/ml PMA (Sigma, cat# P8139) 10 μL/well to a final concentration 5 ng/ml, and 1 μg/ml LPS (Sigma, cat# L4130) 10 μL/well to a final concentration 100 ng/ml. Incubate cells at 37° C. overnight for ˜18 hr. PMA is stored frozen as 100 μg/ml stock in DMSO. Dilute 1:10 in DMSO for a working stock of 10 μg/ml and store at −20 C. For assaying, dilute the 10 μg/ml working stock 1:200 in medium to make a 10× solution (50 ng/ml). Store frozen LPS at 1 mg/ml in PBS, dilute 1:1000 in medium to make 10× (1 μg/ml) for the assay. Add 6× loading buffer (CCF2-AM) 20 μL/well, and incubate at room temperature for 70˜90 min. […] The activity repressed by 100 nM dexamethasone alone is set as 100% activity.

Compound | Emax [%]
CCCC(C)NC(=O)OC1(CO)C(=O)C2(C)CC(O)C3(F)C(CCC4=CC(=O)C=CC43C)C2CC1C [Example 2, (11β,16β,17α)-9-fluoro-11-hydroxy-16-methyl-3,17a-dioxo-17-(hydroxymethyl)-D-homoandrosta-1,4-dien-17-yl-(2-pentyl)carbamate] | > 5
CC(=O)OCC1(OC(=O)NC23CC4CC(CC(C4)C2)C3)C(=O)C2(C)CC(O)C3(F)C(CCC4=CC(=O)C=CC43C)C2CC1C [Example 6, (11β,16β,17α)-9-fluoro-11-hydroxy-16-methyl-3,17a-dioxo-17-[(acetyloxy)methyl]-D-homoandrosta-1,4-dien-17-yl-(1-adamantyl)carbamate] | > 5
CCCC(C)CNC(=O)OC1(CO)C(=O)C2(C)CC(O)C3(F)C(CCC4=CC(=O)C=CC43C)C2CC1C [Example 3, (11β,16β,17α)-9-fluoro-11-hydroxy-16-methyl-3,17a-dioxo-17-(hydroxymethyl)-D-homoandrosta-1,4-dien-17-yl-(2-methyl-pentyl)carbamate] | > 5
CC(=O)OCC1(OC(=O)NC23CC4CC(CC(C4)C2)C3)C(=O)C2(C)CC(OC(=O)C(F)(F)F)C3(F)C(CCC4=CC(=O)C=CC43C)C2CC1C [Example 5, (11β,16β,17α)-9-fluoro-11-trifluoroacetoxy-16-methyl-3,17a-dioxo-17-[(acety1oxy)methy1]-D-homoandrosta-1,4-dien-17-yl-(1-adamantyl)carbamate] | > 5
CC1CC2C3CCC4=CC(=O)C=CC4(C)C3(F)C(OC(=O)C(F)(F)F)CC2(C)C(=O)C1(CO)OC(=O)NC12CC3CC(CC(C3)C1)C2 [Example 7, (11β,16β,17α)-9-fluoro-11-trifluoroacetoxy-16-methyl-3,17a-dioxo-17-(hydroxymethyl)-D-homoandrostra-1,4-dien-17-yl-(1-adamantyl)carbamate] | > 5
C[C@H]1CC2C3CCC4=CC(=O)C=C[C@]4(C)[C@@]3(F)[C@@H](O)C[C@]2(C)C(=O)[C@]1(CO)OC(=O)NC12CC3CC(CC(C3)C1)C2 (stereo partly drawn) [Example 1, (11β,16β,17α)-9-fluoro-11-hydroxy-16-methyl-3,17a-dioxo-17-(hydroxymethyl)-d-homoandrosta-1,4-dien-17-yl-(1-adamantyl)carbamate] | > 5
CC1CC2C3CCC4=CC(=O)C=CC4(C)C3(F)C(O)CC2(C)C(=O)C1(CO)OC(=O)NC1CCCCC1 [Example 9, (11β,16β,17α)-9-fluoro-11-hydroxy-16-methyl-3,17a-dioxo-17-(hydroxymethyl)-D-homoandrosta-1,4-dien-17-yl-(cyclohexyl)carbamate] | > 5
